Laboratory results reported in patent US11834424B2, “Compounds useful as chaperone-mediated autophagy modulators” (ALBERT EINSTEIN COLLEGE OF MEDICINE, priority 2018, dated 2023).
“And” between values parts separate entries of the source, which are not always exact repeats. Identical values can stand only once. Like-named read-outs stand apart in the source and are kept apart here.

Experiment: Pharmacokinetics (plasma and brain levels) in ICR (CD-1) mice
Assay type: in vivo
Settings: i.v. 1 mg/kg, 1 mg/kg
Description: ICR (CD-1) male mice were fasted at least three horns and water was available ad libitum before the study. Animals were housed in a controlled environment, target conditions: temperature 18 to 29° C., relative humidity 30 to 70%. Temperature and relative humidity was monitored daily. An electronic time controlled lighting system was used to provide a 12 h light/12 h dark cycle. 3 mice for each indicated time point. ICR (CD-1) mice were administered CA77 at 1 mg/kg i.v. and 30 mg/kg p.o. or CA77.1 at 1 mg/kg i.v. (FIG. 2A) and 10 mg/kg p.o. (FIG. 2B). Three (3) mice were included in each dosage and time group. Mice were sacrificed and plasma and brains were obtained at 0.083, 0.25, 0.50, 1.0, 2.0, 4.0, 8.0, and 24.0 hours after administration and drug concentration determined using LC-MS/MS. Brains were removed, homogenized with a tissue homogenizer in cold 5% w/v BSA in phosphate buffer saline (PBS). A 100 microliter aliquots of brain samples were dispensed in to glass culture tubes and mixed with ethyl acetate (800 μl), vortexed, and centrifuged. The organic layer was transferred to a fresh culture tube, dried under nitrogen, and reconstituted in mobile phase for quantitation. Pharmacokinetic parameters were determined by standard methods using Phoenix WinNonlin 6.3 software.
Tables 3A and 3B provide the concentrations of CA77 in ICR (CD-1) mouse plasma (3A) and mouse brain (3B) following i.v. administration of 1 mg/kg CA77. Table 3C provides the brain/plasma ratio of CA77 following i.v. administration of 1 mg/kg CA77. Shaded cells indicate data not included in statistics due to aberrant value. BLQ=Below Limit of Quantitation.
Tables 5A and 5B provide the concentrations of CA77.1 in ICR (CD-1) mouse plasma (5A) and mouse brain (5B) following i.v. administration of 1 mg/kg CA77.1. Table 5C provides the brain/plasma ratio of CA77.1 following i.v. administration of 1 mg/kg CA77.1. The plasma and brain pharmacokinetic parameters for CA77.1 are provided in Table 6. *—cells contain data not present in the statistics.

For CC(=O)Nc1ccc(C2=Nc3ccc(Cl)cc3OC2)cc1 [CA77, reference compound], the “Conc. in brain, individual animal” value (mouse brain, 0.083 h) was 2943 ng/g and *693 ng/g, the “Conc. in brain, individual animal” value (mouse brain, 0.25 h) was 3391 ng/g and 5173 ng/g and 2397 ng/g and the “Conc. in brain, individual animal” value (mouse brain, 0.50 h) was 2795 ng/g and 2950 ng/g. For the same molecule, the “Conc. in brain, individual animal” value (mouse brain, 1.00 h) was 2651 ng/g and 2154 ng/g, the “Conc. in brain, individual animal” value (mouse brain, 2.00 h) was 411 ng/g and 792 ng/g and the “Conc. in brain, individual animal” value (mouse brain, 4.00 h) was 112 ng/g and 124 ng/g. The “Conc. in brain, individual animal” value (mouse brain, 8.00 h) was 7.74 ng/g and 27.5 ng/g and 41.4 ng/g, the “Conc. in brain, individual animal” value (mouse brain, 24.0 h) was 2.68 ng/g and 4.25 ng/g and 2.07 ng/g and the “Conc. in plasma, individual animal” value (mouse plasma, 0.083 h) was 41.4 ng/mL and *14 ng/mL. For the same molecule, the “Conc. in plasma, individual animal” value (mouse plasma, 0.25 h) was 27.2 ng/mL and 43.9 ng/mL and 19.5 ng/mL, the “Conc. in plasma, individual animal” value (mouse plasma, 0.50 h) was 14.6 ng/mL and 21.9 ng/mL and the “Conc. in plasma, individual animal” value (mouse plasma, 1.00 h) was 21.5 ng/mL and 15.3 ng/mL. The “Conc. in plasma, individual animal” value (mouse plasma, 2.00 h) was 7.54 ng/mL and 1.71 ng/mL and 3.84 ng/mL, the “Conc. in plasma, individual animal” value (mouse plasma, 4.00 h) was “BLQ and 0.533 ng/mL” and the “Brain/Plasma ratio, individual animal” value (mouse, 0.083 h) was 71.1 and *48.9. The “Brain/Plasma ratio, individual animal” value (mouse, 0.25 h) was 118 and 123, the “Brain/Plasma ratio, individual animal” value (mouse, 0.50 h) was 192 and 135 and the “Brain/Plasma ratio, individual animal” value (mouse, 1.00 h) was 123 and 141. For the same molecule, the “Brain/Plasma ratio, individual animal” value (mouse, 2.00 h) was 102 and 240 and 206, the “Brain/Plasma ratio, individual animal” value (mouse, 4.00 h) was 232 and the concentration at 0.083 h (male, ICR (CD-1), mouse, brain, iv, mouse brain, 0.083 h, read-out: Conc. in brain, Mean) was 3360 ng/g. The concentration at 0.083 h (male, ICR (CD-1), mouse, brain, iv, mouse brain, 0.083 h, read-out: Conc. in brain, individual animal) was 3770 ng/g, the concentration at 0.25 h (male, ICR (CD-1), mouse, brain, iv, mouse brain, 0.25 h, read-out: Conc. in brain, Mean) was 3650 ng/g and the concentration at 0.5 h (male, ICR (CD-1), mouse, brain, iv, mouse brain, 0.50 h, read-out: Conc. in brain, Mean) was 2650 ng/g. It also gave a concentration at 0.5 h (male, ICR (CD-1), mouse, brain, iv, mouse brain, 0.50 h, read-out: Conc. in brain, individual animal) of 2200 ng/g, a concentration at 1 h (male, ICR (CD-1), mouse, brain, iv, mouse brain, 1.00 h, read-out: Conc. in brain, Mean) of 2460 ng/g and a concentration at 1 h (male, ICR (CD-1), mouse, brain, iv, mouse brain, 1.00 h, read-out: Conc. in brain, individual animal) of 2760 ng/g. It also gave a concentration at 2 h (male, ICR (CD-1), mouse, brain, iv, mouse brain, 2.00 h, read-out: Conc. in brain, Mean) of 659 ng/g, a concentration at 2 h (male, ICR (CD-1), mouse, brain, iv, mouse brain, 2.00 h, read-out: Conc. in brain, individual animal) of 773 ng/g and a concentration at 4 h (male, ICR (CD-1), mouse, brain, iv, mouse brain, 4.00 h, read-out: Conc. in brain, Mean) of 104 ng/g. For the same molecule, the concentration at 4 h (male, ICR (CD-1), mouse, brain, iv, mouse brain, 4.00 h, read-out: Conc. in brain, individual animal) was 76 ng/g, the concentration at 8 h (male, ICR (CD-1), mouse, brain, iv, mouse brain, 8.00 h, read-out: Conc. in brain, Mean) was 25.6 ng/g and the concentration at 24 h (male, ICR (CD-1), mouse, brain, iv, mouse brain, 24.0 h, read-out: Conc. in brain, Mean) was 3 ng/g. It also gave a Kp at 0.083 h (male, ICR (CD-1), mouse, brain/plasma, iv, mouse, 0.083 h, read-out: Brain/Plasma ratio, Mean) of 71.2, a Kp at 0.083 h (male, ICR (CD-1), mouse, brain/plasma, iv, mouse, 0.083 h, read-out: Brain/Plasma ratio, individual animal) of 71.3 and a Kp at 0.25 h (male, ICR (CD-1), mouse, brain/plasma, iv, mouse, 0.25 h, read-out: Brain/Plasma ratio, Mean) of 122. For the same molecule, the Kp at 0.25 h (male, ICR (CD-1), mouse, brain/plasma, iv, mouse, 0.25 h, read-out: Brain/Plasma ratio, individual animal) was 125, the Kp at 0.5 h (male, ICR (CD-1), mouse, brain/plasma, iv, mouse, 0.50 h, read-out: Brain/Plasma ratio, Mean) was 151 and the Kp at 0.5 h (male, ICR (CD-1), mouse, brain/plasma, iv, mouse, 0.50 h, read-out: Brain/Plasma ratio, individual animal) was 128. It also gave a Kp at 1 h (male, ICR (CD-1), mouse, brain/plasma, iv, mouse, 1.00 h, read-out: Brain/Plasma ratio, Mean) of 159, a Kp at 1 h (male, ICR (CD-1), mouse, brain/plasma, iv, mouse, 1.00 h, read-out: Brain/Plasma ratio, individual animal) of 178 and a Kp at 2 h (male, ICR (CD-1), mouse, brain/plasma, iv, mouse, 2.00 h, read-out: Brain/Plasma ratio, Mean) of 183. For the same molecule, the Kp at 4 h (male, ICR (CD-1), mouse, brain/plasma, iv, mouse, 4.00 h, read-out: Brain/Plasma ratio, Mean) was 210, the Kp at 4 h (male, ICR (CD-1), mouse, brain/plasma, iv, mouse, 4.00 h, read-out: Brain/Plasma ratio, individual animal) was 188 and the concentration at 0.083 h (male, ICR (CD-1), mouse, plasma, iv, mouse plasma, 0.083 h, read-out: Conc. in plasma, Mean) was 47.1 ng/mL. It also gave a concentration at 0.083 h (male, ICR (CD-1), mouse, plasma, iv, mouse plasma, 0.083 h, read-out: Conc. in plasma, individual animal) of 52.9 ng/mL, a concentration at 0.25 h (male, ICR (CD-1), mouse, plasma, iv, mouse plasma, 0.25 h, read-out: Conc. in plasma, Mean) of 30.2 ng/mL and a concentration at 0.5 h (male, ICR (CD-1), mouse, plasma, iv, mouse plasma, 0.50 h, read-out: Conc. in plasma, Mean) of 17.9 ng/mL. It also gave a concentration at 0.5 h (male, ICR (CD-1), mouse, plasma, iv, mouse plasma, 0.50 h, read-out: Conc. in plasma, individual animal) of 17.2 ng/mL, a concentration at 1 h (male, ICR (CD-1), mouse, plasma, iv, mouse plasma, 1.00 h, read-out: Conc. in plasma, Mean) of 15.4 ng/mL and a concentration at 1 h (male, ICR (CD-1), mouse, plasma, iv, mouse plasma, 1.00 h, read-out: Conc. in plasma, individual animal) of 15.5 ng/mL. It also gave a concentration at 2 h (male, ICR (CD-1), mouse, plasma, iv, mouse plasma, 2.00 h, read-out: Conc. in plasma, Mean) of 4.37 ng/mL, a concentration at 4 h (male, ICR (CD-1), mouse, plasma, iv, mouse plasma, 4.00 h, read-out: Conc. in plasma, Mean) of 0.565 ng/mL and a concentration at 4 h (male, ICR (CD-1), mouse, plasma, iv, mouse plasma, 4.00 h, read-out: Conc. in plasma, individual animal) of 0.597 ng/mL.
